Results from PMC10154249, “Unique progerin C-terminal peptide ameliorates Hutchinson–Gilford progeria syndrome phenotype by rescuing BUBR1” (Nature Aging, 2023).

How the values were obtained:
HGADFN003 cells = experiment: Effect of UPCP on HGADFN003 senescence after BUBR1 depletion (shBUBR1#3): SA-β-gal, Ki67, aneuploid cells; assay type: cell-based, human; conditions: for Relative percentage of SA-β-gal positive cells: Fig. 5g; for Relative percentage of SA-β-gal positive cells / Relative percentage of Ki67 positive cells / Relative percentage of aneuploid cells: HGADFN003; for Relative percentage of Ki67 positive cells: Fig. 5i; for Relative percentage of aneuploid cells: Fig. 5j
Description: Immunofluorescence was performed as described previously. Cells were plated on cover slips in 12-well plates, left overnight before the treatment. Cells were fixed in 1% formaldehyde in culture medium for 10 min at 37 °C and permeabilized with 0.2% Triton X-100 in PBS for 10 min at room temperature. Cells were washed twice in PBS and blocked for 1 h with 5% BSA in PBS and then incubated with primary antibodies at 4 °C overnight, washed three times in PBS and incubated with secondary antibodies for 1 h at room temperature. Cell nuclei were counterstained with a 500 nM concentration of 4,6-diamidino-2-phenylindole (DAPI) (Sigma). Images were acquired by a fluorescence microscope (OLYMPUS FV-1000, Carl Zeiss LSM880 or Leica DMi8) and analyzed with software NIS-Elements AR v.5.0.1 (Nikon), FLUOVIEW v.4.2b (OLYMPUS), ZEN v.2.3 SP1 (Carl Zeiss) and Leica Application Suite X v.3.6.0.24 (Leica). Cells were quantified by investigators who were blinded to the identity of the analyzed cell.
SA-β-gal staining was performed as previously described. Cells were fixed in 0.5% glutaraldehyde for 15 min at room temperature, washed three times with PBS (pH 6.0) containing 1 mM MgCl2 and exposed overnight 37 °C to containing 1 mg ml^–1 5-bromo-4-chloro-3-indolyl-β-D-galactopyranoside (MCE, catalog no. HY-15934), 0.12 mM potassium ferrocyanide (Sigma, catalog no. P3289), 0.12 mM potassium ferricyanide (Sigma, catalog no. P8131) and 1 mM MgCl2 PBS buffer (pH 6.0). Cells were washed three times with H2O and observed under a microscope (OLYMPUS CKX53). SA-β-gal positive cells were quantified by investigators who were blinded to the identity of the analyzed cell.
For the metaphase chromosome spread assay, 1.5 × 10^6 cells were seeded in a 6 cm dish and incubated for 24 h with fresh medium. Then, colchicine was added to a final concentration of 0.2 μg ml^–1 and the cells were incubated at 37 °C for 2 h. After digestion, we collected and rinsed the cells with PBS. The cells were centrifuged at 160g for 10 min. Then, 1 M KCl was added to a final concentration of 0.075 mol l^–1 and the samples were incubated at 37 °C for 20 min. The cells were centrifuged, and the supernatant aspirated. The pellet was resuspended, and 1 ml methanol:glacial acetic acid (3:1) solution was added. The sample was rested at room temperature for 10 min. Then, the cells were centrifuged at 160g for 10 min. The supernatant was aspirated, and the pellet resuspended in 1 ml fixative for 30 min. The cells were centrifuged and the pellet was suspended in 1 ml fixative again for 30 min. The cells were centrifuged at 160g for 10 min and the supernatant aspirated. The pellet was then resuspended in a small volume of fixative (typically less than 500 μl) until the cell suspension appeared lightly milky. A small quantity of the cell suspension was held vertically in a pipette with the end about 10 cm above the slide. A single drop was released from this height onto the slide and allowed to air dry. The cells were then incubated with 500 nM of DAPI (Invitrogen) for 10 min. Slides were examined with an Olympus BX53 fluorescence microscope and the images were captured by using the Olympus IPP v.7.0 software. Aneuploid cells were quantified by investigators who were blinded to the identity of the analyzed cell.

[1] = test system: esophagus of Lmna^G609G/G609G mice; experiment: Masson staining of esophagus (lamina propria); assay type: in vivo, mouse; conditions: 13 weeks; for aortic adventitia, mean / aortic adventitia: 20 mg kg^–1 i.p.
Description: For UPCP injection, 14-day-old Lmna^G609G/G609G mice were injected intraperitoneally with either PBS or UPCP (20 mg kg^–1, every other day) and wild-type mice were injected with PBS. […] Bodyweight and lifespan were monitored after UPCP treatment. The survival rate was analyzed by the Kaplan–Meier method. We only included mice that were of sufficient bodyweight at the start of the experiment, typically at least 80% of the average littermate weight of the same sex and genotype. All animals meeting criteria for inclusion were then divided randomly into three groups according to genotype (Lmna^+/+, Lmna^G609G/G609G-Mock and Lmna^G609G/G609G-UPCP).
For histological analyses, mice of the indicated genotypes were perfused with PBS, then with 4% paraformaldehyde (PFA). Whole organs were incubated in 4% PFA at 4 °C for 16 h. All samples were paraffin embedded and sectioning by Servicebio. Subsequently, the tissues were deparaffinized and rehydrated before hematoxylin-eosin (HE) or Masson staining or immunohistochemistry (IHC). HE staining was performed using an HE Kit (Absin, catalog no. abs9217), and Masson staining was performed using Masson’s Trichrome Stain Kit (Absin, catalog no. abs9347) according to the manufacturer’s instructions. The thickness of the layers or the areas of fibrosis in the tissues were calculated using ImageJ software by a blinded investigator. For IHC, the sections were completed by the Servicebio. The images were acquired by a microscope (Leica DMi8) and analyzed with Leica Application Suite X v.3.6.0.24 (Leica). For BubR1, cytoplasmic staining in cells was scored on the intensity of staining and the proportion of positive cells by a blinded investigator. The intensity of the staining was graded as 0 (negative, no color), 1 (low positive, light yellow), 2 (positive, brown yellow) or 3 (high positive, brown), and the number of positive cells was graded as 0 (<5%), 1 (5–25%), 2 (25–50%), 3 (51–75%) or 4 (>75%). The final score was defined as staining number score multiplied by staining color score. For lamin B1, p21 or IL-6, the proportion of positive cells was used to quantify the expression of protein in tissues by a blinded investigator.

[2] = 20 mg kg^–1 i.p. every other day

## H-YGRKKRRQRRRYNLRSRTVLCGTCGQPADKASASGSGAQSPQNCSIM-OH (cysteines drawn unpaired) [UPCP, unique progerin C-terminal peptide]
HGADFN003 cells; UPCP+shBUBR1#3, P=0.0068 vs Mock, 0.0058 vs UPCP, replicate 1
  Relative percentage of SA-β-gal positive cells: 38%
HGADFN003 cells; UPCP+shBUBR1#3, P=0.0068 vs Mock, 0.0058 vs UPCP, replicate 2
  Relative percentage of SA-β-gal positive cells: 35%
HGADFN003 cells; UPCP+shBUBR1#3, P=0.0068 vs Mock, 0.0058 vs UPCP, replicate 3
  Relative percentage of SA-β-gal positive cells: 41%
HGADFN003 cells; UPCP, Mock 48, 52, 55, P=0.0005 vs Mock, replicate 1
  Relative percentage of SA-β-gal positive cells: 25%
HGADFN003 cells; UPCP, Mock 48, 52, 55, P=0.0005 vs Mock, replicate 2
  Relative percentage of SA-β-gal positive cells: 28%
HGADFN003 cells; UPCP, Mock 48, 52, 55, P=0.0005 vs Mock, replicate 3
  Relative percentage of SA-β-gal positive cells: 29%
HGADFN003 cells; UPCP+shBUBR1#3, P=0.0314 vs Mock, 0.0222 vs UPCP, replicate 1
  Relative percentage of Ki67 positive cells: 52%
HGADFN003 cells; UPCP+shBUBR1#3, P=0.0314 vs Mock, 0.0222 vs UPCP, replicate 2
  Relative percentage of Ki67 positive cells: 49%
HGADFN003 cells; UPCP+shBUBR1#3, P=0.0314 vs Mock, 0.0222 vs UPCP, replicate 3
  Relative percentage of Ki67 positive cells: 43%
HGADFN003 cells; UPCP, Mock 35, 41, 37, P=0.0029 vs Mock, replicate 1
  Relative percentage of Ki67 positive cells: 65%
HGADFN003 cells; UPCP, Mock 35, 41, 37, P=0.0029 vs Mock, replicate 2
  Relative percentage of Ki67 positive cells: 58%
HGADFN003 cells; UPCP, Mock 35, 41, 37, P=0.0029 vs Mock, replicate 3
  Relative percentage of Ki67 positive cells: 71%
HGADFN003 cells; UPCP+shBUBR1#3, P=0.0641 vs Mock, 0.0036 vs UPCP, replicate 1
  Relative percentage of aneuploid cells: 25%
HGADFN003 cells; UPCP+shBUBR1#3, P=0.0641 vs Mock, 0.0036 vs UPCP, replicate 2
  Relative percentage of aneuploid cells: 27%
HGADFN003 cells; UPCP+shBUBR1#3, P=0.0641 vs Mock, 0.0036 vs UPCP, replicate 3
  Relative percentage of aneuploid cells: 24%
HGADFN003 cells; UPCP, Mock 28, 36, 31, P=0.005 vs Mock, replicate 1
  Relative percentage of aneuploid cells: 19%
HGADFN003 cells; UPCP, Mock 28, 36, 31, P=0.005 vs Mock, replicate 2
  Relative percentage of aneuploid cells: 16%
HGADFN003 cells; UPCP, Mock 28, 36, 31, P=0.005 vs Mock, replicate 3
  Relative percentage of aneuploid cells: 18%
HGADFN003 cells; HGADFN003, BUBR1 shRNA (shBUBR1#3)
  senescence remission by UPCP after BUBR1 depletion: depletion of BUBR1 significantly antagonized the senescence remission mediated by UPCP
[1]; [2]
  fibrosis of lamina propria, esophagus: reduced fibrosis of lamina propria in the esophagus and heart
  thickness of lamina propria, esophagus: decreased the thickness of the lamina propria in the esophagus
[1]; sample 1, mean of 3 measurements
  aortic adventitia, mean: 9.139 μm
[1]; sample 1, measurement 1
  aortic adventitia: 9.452 μm
[1]; sample 1, measurement 2
  aortic adventitia: 8.478 μm
[1]; sample 1, measurement 3
  aortic adventitia: 9.488 μm
[1]; sample 2, mean of 3 measurements
  aortic adventitia, mean: 9.054 μm
[1]; sample 2, measurement 1
  aortic adventitia: 9.392 μm
[1]; sample 2, measurement 2
  aortic adventitia: 8.624 μm
[1]; sample 2, measurement 3
  aortic adventitia: 9.147 μm
[1]; sample 3, mean of 3 measurements
  aortic adventitia, mean: 10.936 μm
[1]; sample 3, measurement 1
  aortic adventitia: 10.5409 μm
[1]; sample 3, measurement 2
  aortic adventitia: 9.16 μm
[1]; sample 3, measurement 3
  aortic adventitia: 13.1073 μm
